Assay results as given in EP0886648B1 (ORTHO PHARMACEUTICAL CORPORATION, priority 1995, dated 1996).
Where two headings read alike, the source gives them in different places. One block for each compound: values may come before it. Positions of bridges follow the written chain, without caps; N, C: chain ends. Residues, ends and D or L forms follow the SMILES beside them. Chains are numbered I, II in the order given. No end group written: not given here.

Assays:
PIG-tailed EPO-R = target: T1, PIG-tailed EPO-R (Homo sapiens, UniProt P19235); experiment: radioligand competition binding assay against PIG-tailed EPO-R immobilized on mAb179
T1 construct: comprised the extracellular domain of the EPO-receptor and was produced in recombinant host cells; thrombin cleavage site (internal); made in house
T1 sequence (P19235 25-250 limits assumed): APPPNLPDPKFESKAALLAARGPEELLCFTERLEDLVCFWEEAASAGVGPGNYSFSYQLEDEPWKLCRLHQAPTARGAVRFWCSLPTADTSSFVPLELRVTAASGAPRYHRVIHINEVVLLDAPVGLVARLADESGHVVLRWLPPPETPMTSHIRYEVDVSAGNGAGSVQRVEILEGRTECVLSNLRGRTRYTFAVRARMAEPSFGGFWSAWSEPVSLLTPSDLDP
Description: The immobilized receptor used in the panning and ELISA procedures comprised the extracellular domain of the EPO-receptor and was produced in recombinant host cells. This receptor molecule can be produced in a variety of different forms and host cells. One useful form is constructed with a signal peptide for protein secretion and for glycophospholipid membrane anchor attachment (this form of anchor attachment is called "PIG-tailing;" see, Caras and Weddell, 3 March. 1989, Science 243:1196-1198; and Lin et al., 10 Aug. 1990, Science 249:677-679, each of which is incorporated herein by reference). This system allows for cleavage of the receptor from the surface of the cells expressing the receptor and collection of the cleaved receptor quite easily. Preferably, a protease cleavage site, such as a thrombin cleavage site, is inserted between the HPAP epitope of the PIG-tailed receptor and the receptor itself.
The recombinant receptor protein was immobilized using the following methodology. Microtiter plates were coated within an and-receptor antibody and the wells which were to contain the immobilized receptor were treated with bovine serum albumin (BSA) to block non-specific binding. The PIG-tailed receptor having a thrombin cleavage site was added to the coated wells of the microtiter plate, which were then washed to remove unbound receptor.
IC50s were calculated for several of the peptides falling within the general motifs described above. (Each of these peptides were independently synthesized and are C-terminally amidated, but could be easily prepared as the free carboxy acid or as an ester or other carboxy amide.)
This peptide was incubated with streptavidin in PBS at a 4:1 molar ratio at room temperature for one hour. Following this, the complex was introduced into the PIG-tailed EPO-R binding assay for IC50 determination. Peptide that had not been complexed to streptavidin was also run in the same experiment. […] Since this comparison was made using the free peptide concentrations and not the effective complex concentration (theoretically 4-fold lower), the effect will be even greater.
Figures 13 and 14 show the in vitro EPOR binding and biological activities of the dimer. The affinity of the dimer was tested against the PIG-tailed EPOR immobilized on mAb179 in strip wells.

Female BDF1 mice = experiment: polycythemic exhypoxic mouse bioassay; format: in vivo; settings: approximate equivalency
Protocol: Female BDF1 mice (18-20 gms) are subjected to a conditioning cycle (in hypobaric chambers) of 18 hrs. at 0.40 ± 0.02 atm. and 6 hrs. at ambien pressure for a period of 14 days.
Mice are maintained at ambient pressure for 72 hrs prior to administration of r-HuEPO or test samples. Test samples or r-HuEPO standard are diluted for injection into conditioned mice. The vehicle consists of: PBS containing 0.1 % BSA (w/v). For each dilution, 0.5 ml is administered subcutaneously into each of 10 mice. ^59Fe is administered 48 hrs. later. Blood samples are taken 48 hrs. following administration of ^59Fe. Hematocrits and radioactivity measurements are determined for each sample. Dose range and results (two different assays) are set forth in Table 23 and Figures 17A-17C, infra.

FDCP-1/hEPO-R = settings: for increase in potency over the parental peptide: EC50 of dimer vs GGTYSCHFGPLTWVCKPQGG
Protocol: One assay utilized FDCP-1, a growth factor dependent murine multi-potential primitive hematopoietic progenitor cell line (see, e.g.. Dexter et al. (1980) J. Exp. Med. 152:1036-1047), as the parental cell line. This cell line can proliferate, but not differentiate, when supplemented with WEHI3-conditioned media (a medium that contains IL-3, ATCC number T1B68).
In brief, the cells are grown to half stationary density in the presence of the necessary growth factors. The cells are then washed in PBS and starved for 16-24 hours in whole media without the growth factors. After determining the viability of the cells, stock solutions (in whole media without the growth factors) are made to give about 10^5 cells per 50 microliters. […] Cells (50 microliters) are added to each well and the cells are incubated 24-48 hours, at which point the negative controls should die or be quiescent. Cell proliferation is then measured by techniques known in the art, such as an MTT assay which correlates with ^3H-thymidine incorporation as an indication of cell proliferation (see, Mosmann (1983) J. Immunol. Methods 65:55).
In addition, this peptide was preincubated with streptavidin in serum-free HEPES-buffered RPMI at a 4:1 molar ratio, as above. The complex was tested for stimulation of cell proliferation in an FDCP-1/hEPO-R bioassay alongside free […] (Ahx-biotin)) and the unbiotinylated parental peptide, i.e., […].

[1] = system: FDC-P1/ER (murine receptor); experiment: peptide dependent growth of EPO-responsive cell line FDC-P1/ER (thymidine incorporation); format: cell-based
Protocol: • a. […] Cell Proliferation Assay: • i. […] Peptide is added to each well in triplicate.

[2] = target: T2, extracellular domain of the human erythropoietin receptor (EPO binding protein, EBP) (Homo sapiens, UniProt P19235); experiment: immobilized EBP based [125I]EPO competition binding assay
T2 construct: made in house
T2 sequence (P19235 25-250 limits assumed): T1 sequence (P19235 25-250 limits assumed)
Protocol: The mixture was rocked gently for 30 minutes at room temperature, and the beads were allowed to settle for 1 hour at room temperature. The supernatant was removed and retained, and the beads were washed twice with 20 ml of coupling buffer.
Competitive binding analysis assays of candidate peptides were performed as outlined below. Individual peptides were dissolved in DMSO to prepare a stock solution of 1 mM. […] Initial assay points with no added peptide were included in each assay to determine total binding. Binding mixtures were incubated overnight at room temperature with gentle rocking. The beads were then collected using Micro-columns (Isolab, Inc., Akron, Ohio) and washed with 3 mL of wash buffer.

[3] = free peptide, C-terminally amidated, read-out: IC50

IC50 (PIG-tailed EPO-R; [3]): 1670 nM
Compound: CC(C)C[C@H](NC(=O)CNC(=O)CN)C(=O)N[C@@H](Cc1ccc(O)cc1)C(=O)N[C@@H](CC(C)C)C(=O)N[C@H]1CSSC[C@@H](C(=O)NCC(=O)N[C@@H](Cc2ccc(O)cc2)C(=O)N[C@@H](CCCCN)C(=O)NCC(=O)NCC(N)=O)NC(=O)[C@H](CC(=O)O)NC(=O)[C@H](Cc2c[nH]c3ccccc23)NC(=O)[C@H]([C@@H](C)O)NC(=O)[C@H](C(C)C)NC(=O)[C@@H]2CCCN2C(=O)CNC(=O)[C@H](Cc2ccccc2)NC(=O)[C@H](CCCNC(=N)N)NC1=O (HELM PEPTIDE1{G.G.L.Y.L.C.R.F.G.P.V.T.W.D.C.G.Y.K.G.G.[am]}$PEPTIDE1,PEPTIDE1,6:R3-15:R3$$$V2.0; N-terminus assumed)

IC50 (PIG-tailed EPO-R; [3]): 179 nM
Compound: CSCC[C@@H]1NC(=O)[C@H](CCCNC(=N)N)NC(=O)[C@@H](NC(=O)[C@H](Cc2c[nH]cn2)NC(=O)[C@H](Cc2ccc(O)cc2)NC(=O)[C@H](CC(=O)O)NC(=O)CNC(=O)CN)CSSC[C@@H](C(=O)N[C@@H](CCCCN)C(=O)N2CCC[C@H]2C(=O)N[C@@H](CC(C)C)C(=O)NCC(=O)NCC(N)=O)NC(=O)[C@H](C(C)C)NC(=O)[C@H](Cc2c[nH]c3ccccc23)NC(=O)[C@H]([C@@H](C)O)NC(=O)[C@H](CC(C)C)NC(=O)[C@@H]2CCCN2C(=O)CNC1=O (HELM PEPTIDE1{G.G.D.Y.H.C.R.M.G.P.L.T.W.V.C.K.P.L.G.G.[am]}$PEPTIDE1,PEPTIDE1,6:R3-15:R3$$$V2.0; N-terminus assumed)

increase over the value for the parental peptide (PIG-tailed EPO-R; affinity vs GGTYSCHFGPLTWVCKPQGG): 200 fold | increase over the streptavidin complex (PIG-tailed EPO-R; affinity vs GGTYSCHFGPLTWVCKPQGGSSK (Ahx-biotin)-streptavidin complex): 5 fold
Compound: I: GGTYSCHFGPLTWVCKPQGGK-NH2 / II: GGTYSCHFGPLTWVCKPQGG (disulfide I:6-I:15, II:6-II:15 (inferred); amide I:21-II:C (inferred); C-terminus assumed) [AF12080]
Amount of Peptide Equivalent to 0.025 units of EPO (Female BDF1 mice): 0.035 nmol | increase in potency over the parental peptide (FDCP-1/hEPO-R): approximately 20 fold | increase in potency over the parental peptide (FDCP-1/hEPO-R; listed as dimeric peptide analog of GGTYSCHFGPLTWVCKPQGG): 20 fold

Compound: TIAQYICYMGPETWECRPSPKA [AF11654]
Amount of Peptide Equivalent to 0.025 units of EPO (Female BDF1 mice): 11 to 21 nmol

IC50 (PIG-tailed EPO-R; equilibrium competition binding assay, strip wells, read-out: affinity): 200 nM | IC50 (PIG-tailed EPO-R; [3]): 237 nM | IC50 [2]: 5000 nM | EC50 (FDCP-1/hEPO-R): 400 nM
Compound: CC(C)C[C@@H]1NC(=O)[C@@H]2CCCN2C(=O)CNC(=O)[C@H](Cc2ccccc2)NC(=O)[C@H](Cc2c[nH]cn2)NC(=O)[C@@H](NC(=O)[C@H](CO)NC(=O)[C@H](Cc2ccc(O)cc2)NC(=O)[C@@H](NC(=O)CNC(=O)CN)[C@@H](C)O)CSSC[C@@H](C(=O)N[C@@H](CCCCN)C(=O)N2CCC[C@H]2C(=O)N[C@@H](CCC(N)=O)C(=O)NCC(=O)NCC(N)=O)NC(=O)[C@H](C(C)C)NC(=O)[C@H](Cc2c[nH]c3ccccc23)NC(=O)[C@H]([C@@H](C)O)NC1=O [RWJ 61233] (HELM PEPTIDE1{G.G.T.Y.S.C.H.F.G.P.L.T.W.V.C.K.P.Q.G.G.[am]}$PEPTIDE1,PEPTIDE1,6:R3-15:R3$$$V2.0)
EPO-ED50 [1]: 100 nM

IC50 (PIG-tailed EPO-R; [3]): 352 nM
Compound: CC[C@H](C)[C@@H]1NC(=O)[C@@H]2CCCN2C(=O)CNC(=O)[C@H](CCSC)NC(=O)[C@H](CCCNC(=N)N)NC(=O)[C@@H](NC(=O)[C@H](C)NC(=O)[C@H](Cc2ccc(O)cc2)NC(=O)[C@@H](NC(=O)CNC(=O)CN)C(C)C)CSSC[C@@H](C(=O)N[C@@H](CO)C(=O)N2CCC[C@H]2C(=O)N[C@@H](CC(C)C)C(=O)NCC(=O)NCC(N)=O)NC(=O)[C@H](C(C)C)NC(=O)[C@H](Cc2c[nH]c3ccccc23)NC(=O)[C@H]([C@@H](C)O)NC1=O (HELM PEPTIDE1{G.G.V.Y.A.C.R.M.G.P.I.T.W.V.C.S.P.L.G.G.[am]}$PEPTIDE1,PEPTIDE1,6:R3-15:R3$$$V2.0; N-terminus assumed)

IC50 (PIG-tailed EPO-R; [3]): 420 nM
Compound: CC[C@H](C)[C@@H]1NC(=O)[C@@H]2CCCN2C(=O)CNC(=O)[C@H](Cc2ccccc2)NC(=O)[C@H](Cc2c[nH]cn2)NC(=O)[C@@H](NC(=O)[C@H](CCSC)NC(=O)[C@H](Cc2ccc(O)cc2)NC(=O)[C@H](CC(N)=O)NC(=O)CNC(=O)[C@@H](N)C(C)C)CSSC[C@@H](C(=O)N[C@@H](CCCNC(=N)N)C(=O)N2CCC[C@H]2C(=O)NCC(=O)NCC(=O)NCC(N)=O)NC(=O)[C@H](C(C)C)NC(=O)[C@H](Cc2c[nH]c3ccccc23)NC(=O)[C@H]([C@@H](C)O)NC1=O (HELM PEPTIDE1{V.G.N.Y.M.C.H.F.G.P.I.T.W.V.C.R.P.G.G.G.[am]}$PEPTIDE1,PEPTIDE1,6:R3-15:R3$$$V2.0; N-terminus assumed)

Compound: CC(C)C[C@@H]1NC(=O)[C@@H]2CCCN2C(=O)CNC(=O)[C@H](Cc2ccccc2)NC(=O)[C@H](Cc2c[nH]cn2)NC(=O)[C@@H](NC(=O)[C@H](CO)NC(=O)[C@H](Cc2ccc(O)cc2)NC(=O)[C@@H](NC(=O)CNC(=O)CN)[C@@H](C)O)CSSC[C@@H](C(=O)N[C@@H](CCCCN)C(=O)N2CCC[C@H]2C(=O)N[C@@H](CCC(N)=O)C(=O)NCC(=O)NCC(=O)N[C@@H](CO)C(=O)N[C@@H](CO)C(=O)N[C@@H](CCCCNC(=O)CCCCCNC(=O)CCCC[C@@H]2SC[C@@H]3NC(=O)N[C@@H]32)C(N)=O)NC(=O)[C@H](C(C)C)NC(=O)[C@H](Cc2c[nH]c3ccccc23)NC(=O)[C@H]([C@@H](C)O)NC1=O [AF11505] (HELM PEPTIDE1{G.G.T.Y.S.C.H.F.G.P.L.T.W.V.C.K.P.Q.G.G.S.S.K.[am]}|PEPTIDE2{[O=C1N[C@H]2[C@H](CS[C@H]2CCCCC(=O)[*:2])N1].[O=C(CCCCCN[*:1])[*:2]]}$PEPTIDE1,PEPTIDE2,23:R3-2:R2|PEPTIDE1,PEPTIDE1,6:R3-15:R3$$$V2.0; N-terminus and C-terminus assumed; bridges inferred)
EPO-ED50 (FDCP-1/hEPO-R; free peptides): approximately 1 µM

IC50 (PIG-tailed EPO-R; [3]): 67000 nM
Compound: VGNYMAHMGPITWVCRPGG-NH2
